Active and inactive are the calls of the source. No rule for the calls is given here.
System: GENE-TOX genotoxicity assays, various organisms and cells
Assay: GENE-TOX mutagenicity studies
Conditions: for call: Assay Type: In vivo carcinogenicity studies, Assay Code: CCG+
[1] = Species/Cell Type: Drosophila melanogaster, Assay Type: Sex-linked recessive lethal gene mutation, Assay Code: SRLT, Evaluation Type: Evaluation A (Pre-1980)
[2] = Species/Cell Type: Mammalian polychromatic erythrocytes, Assay Type: Micronucleus test, chromosome aberrations, Assay Code: MNTT, Evaluation Type: Evaluation A (Pre-1980)
[3] = Species/Cell Type: Rodents, Sex: Male, Assay Type: Dominant lethal test, Assay Code: DLT-, Evaluation Type: Evaluation A (Pre-1980)
[4] = Species/Cell Type: Nonhuman, Evaluation Type: Evaluation A (Pre-1980)
[5] = Species/Cell Type: Salmonella typhimurium (one or more of the five standard strains: TA98, TA100, TA1535, TA1537, and TA1538), Assay Type: Histidine reverse gene mutation, Ames assay, Assay Code: SAL+, Evaluation Type: Evaluation A (Pre-1980)
[6] = Species/Cell Type: Human lymphocytes, Assay Type: Sister-chromatid exchange (SCE) in vitro, Assay Code: SCLT, Evaluation Type: Evaluation B (Post-1980)
[7] = Species/Cell Type: Human, Assay Type: Sister-chromatid exchange (SCE) in vitro, Assay Code: SC1T, Evaluation Type: Evaluation B (Post-1980)
[8] = Species/Cell Type: Mammalian polychromatic erythrocytes, Assay Type: Micronucleus test, chromosome aberrations, Assay Code: MNT+, Evaluation Type: Evaluation A (Pre-1980)
[9] = Species/Cell Type: Human diploid fibroblasts, Assay Type: Unscheduled DNA synthesis (UDS) in vitro, DNA effects, Assay Code: UDH-, Evaluation Type: Evaluation A (Pre-1980)
[10] = Species/Cell Type: Saccharomyces cerevisiae, Assay Type: Mitotic recombination or gene conversion, Assay Code: YEH-, Evaluation Type: Evaluation A (Pre-1980)

## O=S(=O)(O)NC1CCCCC1
Species/Cell Type: Drosophila melanogaster, Assay Type: Aneuploidy, sex chromosome gain, chromosome aberrations, Assay Code: DAG-F, Evaluation Type: Evaluation A (Pre-1980)
  mutagenic call: inactive; negative
Species/Cell Type: Drosophila melanogaster, Assay Type: Aneuploidy, whole sex chromosome loss, chromosome aberrations, Assay Code: DAC-F, Evaluation Type: Evaluation A (Pre-1980)
  mutagenic call: inactive; negative
[1]
  mutagenic call: no conclusion
Species/Cell Type: Mammalian germ cells, Sex: Male, Assay Type: Chromosome aberrations in vivo, Assay Code: CY9T, Evaluation Type: Evaluation A (Pre-1980)
  mutagenic call: no conclusion
[2]
  mutagenic call: no conclusion
Species/Cell Type: Mouse, Sex: Male, Assay Type: Sperm morphology, Assay Code: SPI-, Evaluation Type: Evaluation A (Pre-1980)
  mutagenic call: inactive; negative
Species/Cell Type: Nonhuman bone marrow, Assay Type: Chromosome aberrations, in vivo, Assay Code: CY#T, Evaluation Type: Evaluation A (Pre-1980)
  mutagenic call: no conclusion
Species/Cell Type: Rodents, Sex: Female, Assay Type: Dominant lethal test, Assay Code: DLTF-, Evaluation Type: Evaluation A (Pre-1980)
  mutagenic call: inactive; negative
[3]
  mutagenic call: inactive; negative
Species/Cell Type: Salmonella typhimurium, Serratia marcesens, Assay Type: Forward and reverse gene mutation, host-mediated assay, Assay Code: HM2-, Evaluation Type: Evaluation A (Pre-1980)
  mutagenic call: inactive; negative

## Cn1cnc2c1c(=O)[nH]c(=O)n2C
Species/Cell Type: Allium cepa, Assay Type: Chromosome aberrations, Assay Code: ALC-, Evaluation Type: Evaluation A (Pre-1980)
  mutagenic call: inactive; negative
Species/Cell Type: Human lymphocytes, Assay Type: Sister-chromatid exchange (SCE) in vitro, Assay Code: SCL+, Evaluation Type: Evaluation B (Post-1980)
  mutagenic call: active; positive
Species/Cell Type: Human, Assay Type: Sister-chromatid exchange (SCE) in vitro, Assay Code: SC1+, Evaluation Type: Evaluation B (Post-1980)
  mutagenic call: active; positive
Species/Cell Type: Mammalian polychromatic erythrocytes, Assay Type: Micronucleus test, chromosome aberrations, Assay Code: MNT+U, Dose Response: Unconfirmed positive response, Evaluation Type: Evaluation B (Post-1980)
  mutagenic call: active; positive
Species/Cell Type: Nonhuman, Assay Type: Sister-chromatid exchange (SCE) in vitro, Assay Code: SC2+D, Dose Response: With dose response, Evaluation Type: Evaluation B (Post-1980)
  mutagenic call: active; positive
Species/Cell Type: Nonhuman, Sex: Female, Assay Type: Sister-chromatid exchange (SCE) in vivo, Assay Code: SC3+DF, Dose Response: With dose response, Evaluation Type: Evaluation B (Post-1980)
  mutagenic call: active; positive
Species/Cell Type: Nonhuman, Sex: Male, Assay Type: Sister-chromatid exchange (SCE) in vivo, Assay Code: SC3+DM, Dose Response: With dose response, Evaluation Type: Evaluation B (Post-1980)
  mutagenic call: active; positive

## ONc1ccc2ccccc2c1
Species/Cell Type: Chinese hamster ovary (CHO) cells, Assay Type: Forward gene mutation at the HPRT locus, Assay Code: CHO+, Evaluation Type: Evaluation B (Post-1980)
  mutagenic call: active; positive
Species/Cell Type: Escherichia coli polA (W3119 vs P3478), Assay Type: Rec-assay, DNA effects (bacterial DNA repair), Assay Code: RE1+, Evaluation Type: Evaluation A (Pre-1980)
  mutagenic call: active; positive
Species/Cell Type: Neurospora crassa, Assay Type: Forward gene mutation, Assay Code: NEF+, Evaluation Type: Evaluation A (Pre-1980)
  mutagenic call: active; positive
[4]
  call: active; positive
Species/Cell Type: Saccharomyces cerevisiae, Assay Type: Mitotic recombination or gene conversion, Assay Code: YEH+, Evaluation Type: Evaluation A (Pre-1980)
  mutagenic call: active; positive
[5]
  mutagenic call: active; positive
Species/Cell Type: Salmonella typhimurium, Assay Type: Forward and reverse gene mutation, host-mediated assay, Assay Code: HMA+, Evaluation Type: Evaluation A (Pre-1980)
  mutagenic call: active; positive

## CCOP(=S)(OCC)Oc1ccc(Cl)cc1Cl
Species/Cell Type: Human, Assay Type: Sister-chromatid exchange (SCE) in vitro, Assay Code: SC1+D, Dose Response: With dose response, Evaluation Type: Evaluation B (Post-1980)
  mutagenic call: active; positive

## Cc1ccc(N=Nc2ccc(N(C)C)cc2)cc1
Species/Cell Type: Rat primary hepatocytes, Assay Type: Unscheduled DNA synthesis (UDS) in vitro, DNA effects, Assay Code: UDP-, Evaluation Type: Evaluation A (Pre-1980)
  mutagenic call: inactive; negative

## O=[N+]([O-])c1ccc(/C=C/c2cccc(CO)n2)o1
Species/Cell Type: Human diploid fibroblasts, Assay Type: Unscheduled DNA synthesis (UDS) in vitro, DNA effects, Assay Code: UDH+, Evaluation Type: Evaluation A (Pre-1980)
  mutagenic call: active; positive

## O=S(=O)(O)CCS
[6]
  mutagenic call: no conclusion
[7]
  mutagenic call: no conclusion

## CNc1nc2c(c(=O)n(C)c(=O)n2C)n1C
Species/Cell Type: Allium cepa, Assay Type: Chromosome aberrations, Assay Code: ALC+, Evaluation Type: Evaluation A (Pre-1980)
  mutagenic call: active; positive

## C/C=C1/C[C@@H](C)[C@@](C)(O)C(=O)OCC2=CCN3CC[C@@H](OC1=O)[C@@H]23
Species/Cell Type: Drosophila melanogaster, Assay Type: Sex-linked recessive lethal gene mutation, Assay Code: SRL+, Evaluation Type: Evaluation A (Pre-1980)
  mutagenic call: active; positive

## CCCNC(=O)NS(=O)(=O)c1ccc(Cl)cc1
Species/Cell Type: Human lymphocytes, Assay Type: Sister-chromatid exchange (SCE) in vivo, Assay Code: SCY+, Evaluation Type: Evaluation B (Post-1980)
  mutagenic call: active; positive
[8]
  mutagenic call: active; positive
Species/Cell Type: Nonhuman, Assay Type: Sister-chromatid exchange (SCE) in vitro, Assay Code: SC2+D, Dose Response: With dose response, Evaluation Type: Evaluation A (Pre-1980)
  mutagenic call: active; positive
Species/Cell Type: Nonhuman, Assay Type: Sister-chromatid exchange (SCE) in vivo, Assay Code: SC3+D, Dose Response: With dose response, Evaluation Type: Evaluation B (Post-1980)
  mutagenic call: active; positive

## CCCCCCCCCCCCN(C)N=O
Species/Cell Type: Salmonella typhimurium (one or more of the five standard strains: TA98, TA100, TA1535, TA1537, and TA1538), Assay Type: Histidine reverse gene mutation, Ames assay, Assay Code: SAL+*, Activation: With metabolic activation, Evaluation Type: Evaluation A (Pre-1980)
  mutagenic call: active; positive

## CCOP(=S)(OCC)SCSP(=S)(OCC)OCC
Species/Cell Type: Bacillus subtilis (H17 vs M45), Assay Type: Rec-assay, spot test, DNA effects (bacterial DNA repair), Assay Code: REWT, Evaluation Type: Evaluation A (Pre-1980)
  mutagenic call: no conclusion
Species/Cell Type: Escherichia coli polA (W3119 vs P3478), Assay Type: Rec-assay, DNA effects (bacterial DNA repair), Assay Code: RE1T, Evaluation Type: Evaluation A (Pre-1980)
  mutagenic call: no conclusion
[9]
  mutagenic call: inactive; negative
Species/Cell Type: Human, Assay Type: Sister-chromatid exchange (SCE) in vitro, Assay Code: SC1-, Evaluation Type: Evaluation B (Post-1980)
  mutagenic call: inactive; negative
[10]
  mutagenic call: inactive; negative
Species/Cell Type: Salmonella typhimurium (one or more of the five standard strains: TA98, TA100, TA1535, TA1537, and TA1538), Assay Type: Histidine reverse gene mutation, Ames assay, Assay Code: SAL-, Evaluation Type: Evaluation A (Pre-1980)
  mutagenic call: inactive; negative

## O[C@@H]1[C@H]2O[C@H]2c2cc3c(ccc4ccccc43)cc2[C@H]1O
Species/Cell Type: Chinese hamster lung (V79) cells, Assay Type: Forward gene mutation at the HPRT or ouabain locus, Assay Code: V79+, Evaluation Type: Evaluation A (Pre-1980)
  mutagenic call: active; positive
[5]
  mutagenic call: active; positive

## CN1CCN(CCCN2c3ccccc3Sc3ccc(S(=O)(=O)N(C)C)cc32)CC1
[3]
  mutagenic call: inactive; negative

## CC(C)CCC[C@@H](C)[C@H]1CC[C@H]2[C@@H]3CC=C4C[C@@H](OC(=O)Cc5ccc(N(CCCl)CCCl)cc5)CC[C@]4(C)[C@H]3CC[C@]12C
[4]
  call: active; positive

## CC(C)=CC1C(C(=O)OCc2coc(Cc3ccccc3)c2)C1(C)C (configuration not stated)
[9]
  mutagenic call: inactive; negative
[10]
  mutagenic call: inactive; negative

## ClCc1c2ccccc2c(CCl)c2ccccc12
[5]
  mutagenic call: active; positive

## Cc1ccc2cccc([N+](=O)[O-])c2n1
[5]
  mutagenic call: active; positive

## CN[C@H]1CCc2cc(OC)c(OC)c(OC)c2-c2ccc(OC)c(=O)cc21
Species/Cell Type: Drosophila melanogaster, Assay Type: Aneuploidy, sex chromosome gain, chromosome aberrations, Assay Code: DAG+F, Evaluation Type: Evaluation A (Pre-1980)
  mutagenic call: active; positive
Species/Cell Type: Drosophila melanogaster, Assay Type: Aneuploidy, whole sex chromosome loss, chromosome aberrations, Assay Code: DAC+F, Evaluation Type: Evaluation A (Pre-1980)
  mutagenic call: active; positive
[6]
  mutagenic call: no conclusion
[7]
  mutagenic call: no conclusion
[8]
  mutagenic call: active; positive
Species/Cell Type: Nonhuman, Assay Type: Sister-chromatid exchange (SCE) in vitro, Assay Code: SC2T, Evaluation Type: Evaluation B (Post-1980)
  mutagenic call: no conclusion

## c1ccc2c(C3CO3)c3ccccc3cc2c1 (configuration not stated)
[5]
  mutagenic call: active; positive

## Cn1c([N+](=O)[O-])cnc1COC(N)=O
[2]
  mutagenic call: no conclusion
[3]
  mutagenic call: inactive; negative
[5]
  mutagenic call: active; positive

## OC(c1ccc2c(c1)OCO2)C1CO1 (configuration not stated)
[1]
  mutagenic call: no conclusion
[5]
  mutagenic call: active; positive
